These results are taken from US9938269B2, “Inhibitor compounds of phosphodiesterase type 10A” (ABBVIE INC., priority 2011, dated 2018).

Molecules are shown by their SMILES. Where a name gives a salt, the structure may show the parent alone.

System in the first data set: not listed separately
In words: Determination of the microsomal half-life, human liver microsomes. The settings on record: human, liver microsomes, pH 7.4. Background: Liver microsomes are vesicles of endoplasmic reticulum, rich in cytochrome P450 enzymes.
Usually microsomal CLint stands for the capacity of the preparation to metabolise the compound, expressed as a volume cleared per time. Lower therefore signals slow turnover. The compound `CC1CCN(c2cccc3c2C(=O)N(CCc2ccc4ccccc4n2)C3)CC1N` (stereo not shown) [Example 174, 7-(3-Amino-4-methyl-piperidin-1-yl)-2-(2-quinolin-2-yl-ethyl)-2,3-dihydro-isoindol-1-one] registered a microsomal CLint at 0.5 μM of less than 100 µL/min/mg.
`COc1ccc(N2CCN(C3CCN(C)CC3)CC2)c2c1CN(CCc1ccc3ccccc3n1)C2=O` [Example 269, 4-Methoxy-7-[4-(1-methyl-piperidin-4-yl)-piperazin-1-yl]-2-(2-quinolin-2-yl-ethyl)-2,3-dihydro-isoindol-1-one di-trifluoroacetate] showed a microsomal CLint at 0.5 μM of less than 100 µL/min/mg.
On the same count and under the same terms, the same measure for `CC1CN(c2cccc3c2C(=O)N(CCc2ccc4ccccc4n2)C3)CCO1` (stereo not shown) [Example 228, 7-(2-Methyl-morpholin-4-yl)-2-(2-quinolin-2-yl-ethyl)-2,3-dihydro-isoindol-1-one trifluoroacetate]: greater than 220 µL/min/mg.
Turning to `O=C1c2c(cccc2N2CCN(c3cccnc3)CC2)CN1CCc1ccc2ccccc2n1` [Example 159, 7-(4-Pyridin-3-yl-piperazin-1-yl)-2-(2-quinolin-2-yl-ethyl)-2,3-dihydro-isoindol-1-one trifluoroacetate], the microsomal CLint at 0.5 μM is greater than 220 µL/min/mg.
Still for that read-out and setting: the same measure for `Cc1nc(CCN2Cc3nccc(-c4ccncc4)c3C2=O)sc1C` [compound 408, 6-[2-(4,5-Dimethylthiazol-2-yl)ethyl]-4-(4-pyridyl)-7H-pyrrolo[3,4-b]pyridin-5-one]: less than 100 µL/min/mg; for `O=C1c2c(cccc2-c2ccncc2)CN1CCc1cccc(-c2ncccn2)c1` [Example 121, 7-(Pyridin-4-yl)-2-(3-(pyrimidin-2-yl)phenethyl)isoindolin-1-one]: 100 to 220 µL/min/mg.

System in the next data set: not listed separately
In words: Determination of the microsomal half-life, rat liver microsomes. The following applies: rat, liver microsomes, pH 7.4.
Compound `CC1CCN(c2cccc3c2C(=O)N(CCc2ccc4ccccc4n2)C3)CC1N` (stereo not shown) [Example 174, 7-(3-Amino-4-methyl-piperidin-1-yl)-2-(2-quinolin-2-yl-ethyl)-2,3-dihydro-isoindol-1-one] showed an intrinsic clearance (microsomal CLint) at 0.5 μM of 100 to 220 µL/min/mg.
Consider `COc1ccc(N2CCN(C3CCN(C)CC3)CC2)c2c1CN(CCc1ccc3ccccc3n1)C2=O` [Example 269, 4-Methoxy-7-[4-(1-methyl-piperidin-4-yl)-piperazin-1-yl]-2-(2-quinolin-2-yl-ethyl)-2,3-dihydro-isoindol-1-one di-trifluoroacetate], for which the intrinsic metabolic clearance (microsomal CLint) at 0.5 μM was less than 100 µL/min/mg.
Regarding `CC1CN(c2cccc3c2C(=O)N(CCc2ccc4ccccc4n2)C3)CCO1` (stereo not shown) [Example 228, 7-(2-Methyl-morpholin-4-yl)-2-(2-quinolin-2-yl-ethyl)-2,3-dihydro-isoindol-1-one trifluoroacetate], the microsomal CLint at 0.5 μM was in the range of 100 to 220 µL/min/mg.
The same measure, in the same setting: the value for `O=C1c2c(cccc2N2CCN(c3cccnc3)CC2)CN1CCc1ccc2ccccc2n1` [Example 159, 7-(4-Pyridin-3-yl-piperazin-1-yl)-2-(2-quinolin-2-yl-ethyl)-2,3-dihydro-isoindol-1-one trifluoroacetate] was 100 to 220 µL/min/mg; that for `Cc1nc(CCN2Cc3nccc(-c4ccncc4)c3C2=O)sc1C` [compound 408, 6-[2-(4,5-Dimethylthiazol-2-yl)ethyl]-4-(4-pyridyl)-7H-pyrrolo[3,4-b]pyridin-5-one] was 100 to 220 µL/min/mg; that for `O=C1c2c(N3CCOCC3)ccnc2CN1CCc1cc2ccccc2o1` [compound 397, 6-[2-(Benzofuran-2-yl)ethyl]-4-morpholino-7H-pyrrolo[3,4-b]pyridin-5-one] was 100 to 220 µL/min/mg.

In another data set the target is T1, PDE10A (human) (Homo sapiens, UniProt Q9Y233).
T1 construct: purchased BPS Bioscience
T1 sequence (Q9Y233 whole entry): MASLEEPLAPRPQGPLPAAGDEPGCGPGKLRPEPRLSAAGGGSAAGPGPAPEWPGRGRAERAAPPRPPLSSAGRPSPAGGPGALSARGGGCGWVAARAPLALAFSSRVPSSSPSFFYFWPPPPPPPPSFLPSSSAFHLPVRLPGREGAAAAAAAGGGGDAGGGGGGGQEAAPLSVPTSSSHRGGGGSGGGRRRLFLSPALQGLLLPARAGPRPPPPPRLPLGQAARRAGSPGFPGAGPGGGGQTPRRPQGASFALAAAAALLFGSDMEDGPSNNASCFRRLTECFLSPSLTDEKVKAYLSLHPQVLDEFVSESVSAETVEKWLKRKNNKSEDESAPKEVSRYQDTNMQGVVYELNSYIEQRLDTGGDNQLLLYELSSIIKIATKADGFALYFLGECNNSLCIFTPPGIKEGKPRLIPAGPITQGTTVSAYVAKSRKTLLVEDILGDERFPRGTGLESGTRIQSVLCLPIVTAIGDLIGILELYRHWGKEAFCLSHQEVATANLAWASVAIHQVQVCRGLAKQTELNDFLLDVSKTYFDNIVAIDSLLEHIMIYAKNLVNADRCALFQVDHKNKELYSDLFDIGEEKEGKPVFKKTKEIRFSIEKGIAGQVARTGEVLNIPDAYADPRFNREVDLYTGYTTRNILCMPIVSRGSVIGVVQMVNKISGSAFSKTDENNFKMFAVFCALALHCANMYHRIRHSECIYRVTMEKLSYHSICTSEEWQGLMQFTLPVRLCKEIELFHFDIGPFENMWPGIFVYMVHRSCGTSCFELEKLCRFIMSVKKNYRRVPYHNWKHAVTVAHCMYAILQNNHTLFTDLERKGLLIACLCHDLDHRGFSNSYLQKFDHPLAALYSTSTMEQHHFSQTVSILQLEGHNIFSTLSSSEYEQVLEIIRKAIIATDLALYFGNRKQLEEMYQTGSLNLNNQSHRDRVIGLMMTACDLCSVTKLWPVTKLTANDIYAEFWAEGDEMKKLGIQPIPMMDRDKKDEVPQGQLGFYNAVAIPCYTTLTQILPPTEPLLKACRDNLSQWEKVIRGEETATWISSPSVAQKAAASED
Kind of data set: Measurement of PDE activity (HTRF cAMP kit), human PDE10A. Format: biochemical. The settings on record: PDE enzymatic reaction, substrate 20 nM for PDE10, 60 minutes at 29 C. The essentials:
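Recombinant human PDE10A (10–250 pM range across PDEs) with 20 nM cAMP substrate in 20 mM Tris-HCl pH 7.5, 10 mM MgCl2, 0.1% BSA, compound pre-mixed with enzyme. Ran 60 min at 29 °C. Remaining cAMP read by HTRF, converted to % of uninhibited activity, and IC50 fitted.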
On the technique in general: Time-resolved FRET reads energy transfer from a long-lived donor to a nearby acceptor.
A word on the IC50: it is the concentration that inhibits the measured activity by half. Read a low IC50 as higher potency. On to `O=C1c2c(cccc2-c2ccncc2)CN1CCc1cccc(-c2ncccn2)c1` [Example 121, 7-(Pyridin-4-yl)-2-(3-(pyrimidin-2-yl)phenethyl)isoindolin-1-one], for which the IC50 fell in the range of 200 to 500 nM.
For `COc1ccc(-c2cccc3c2C(=O)N(CCc2ccc4ccccc4n2)C3)cc1` [Example 23, 7-(4-Methoxy-phenyl)-2-(2-quinolin-2-yl-ethyl)-2,3-dihydro-isoindol-1-one], the IC50 is less than 100 nM.
Still for that read-out and setting: the same measure for `O=C1c2c(-c3ccncc3)ccnc2CN1CCc1nc(C2CC2)cs1` [compound 517, 6-[2-(4-Cyclopropylthiazol-2-yl)ethyl]-4-(4-pyridyl)-7H-pyrrolo[3,4-b]pyridin-5-one]: less than 100 nM; for `O=C1c2c(cccc2-c2ccc(F)cc2F)CN1CCc1ccc2ccccc2n1` [Example 45, 7-(2,4-Difluoro-phenyl)-2-(2-quinolin-2-yl-ethyl)-2,3-dihydro-isoindol-1-one]: 100 to 200 nM.
For the compound `O=C1c2c(cccc2-c2nccs2)CN1CCc1ccc2ccccc2n1` [Example 82, 2-(2-Quinolin-2-yl-ethyl)-7-thiazol-2-yl-2,3-dihydro-isoindol-1-one], the IC50 is 200 to 500 nM.
On the same count and under the same terms, the value for `O=C1c2c(N3CCOCC3)ccc(F)c2CN1CCc1ccc2ccccc2n1` [compound 440, 4-Fluoro-7-morpholino-2-[2-(2-quinolyl)ethyl]isoindolin-1-one] was less than 100 nM; that for `CC1(C)c2cccc(-c3ccncc3)c2C(=O)N1CCc1ccc2ccccc2n1` [Example 6, 3,3-Dimethyl-7-pyridin-4-yl-2-(2-quinolin-2-yl-ethyl)-2,3-dihydro-isoindol-1-one] was 100 to 200 nM.
Still for that read-out and setting: the value for `O=C1c2c(C3CCOC3)ccnc2CN1CCc1ccc2ccccc2n1` (stereo not shown) [Example 309, 6-(2-Quinolin-2-yl-ethyl)-4-(tetrahydro-furan-3-yl)-6,7-dihydro-pyrrolo[3,4-b]pyridin-5-one] was less than 100 nM.
Same read-out and setting: the value for `O=C1c2c(cccc2-c2ccn[nH]2)CN1CCc1ccc2sccc2n1` [Example 560, 7-(1H-Pyrazol-5-yl)-2-(2-thieno[3,2-b]pyridin-5-ylethyl)isoindolin-1-one] was 100 to 200 nM.
In turn, `O=C1c2cccc(-c3ccnc(C4CC4)c3)c2CN1CCc1ccc2ccccc2n1` [Example 354, 4-(2-Cyclopropyl-pyridin-4-yl)-2-(2-quinolin-2-yl-ethyl)-2,3-dihydro-isoindol-1-one] displayed an IC50 of 200 to 500 nM.
For `O=C1c2c(cccc2-c2ccc3c(c2)CCO3)CN1CCc1ccc2ccccc2n1` [Example 56, 7-(2,3-Dihydro-benzofuran-5-yl)-2-(2-quinolin-2-yl-ethyl)-2,3-dihydro-isoindol-1-one], the IC50 was in the range of 200 to 500 nM.
Still for that read-out and setting: the same measure for `O=C1c2c(cccc2-c2ccccc2F)CN1CCc1ccc2ccccc2n1` [Example 29, 7-(2-Fluoro-phenyl)-2-(2-quinolin-2-yl-ethyl)-2,3-dihydro-isoindol-1-one]: 100 to 200 nM; for `O=C1c2cccc(-c3cccnc3)c2CN1CCc1ccc2ccccc2n1` [Example 201, 4-Pyridin-3-yl-2-(2-quinolin-2-yl-ethyl)-2,3-dihydro-isoindol-1-one]: less than 100 nM.
Still for that read-out and setting: the same measure for `CN(C)c1ncc(-c2cccc3c2CN(CCc2ccc4ccccc4n2)C3=O)cn1` [Example 341, 4-(2-Dimethylamino-pyrimidin-5-yl)-2-(2-quinolin-2-yl-ethyl)-2,3-dihydro-isoindol-1-one]: 100 to 200 nM.
The same measure, in the same setting: the same measure for `Cc1ccc2nc(CCN3Cc4nccc(-c5ccncc5)c4C3=O)ccc2c1` [compound 406, 6-[2-(6-Methyl-2-quinolyl)ethyl]-4-(4-pyridyl)-7H-pyrrolo[3,4-b]pyridin-5-one]: less than 100 nM; for `Cn1c(CCN2Cc3cccc(-c4ccc(F)cc4)c3C2=O)nc2ccccc21` [Example 211, 7-(4-Fluoro-phenyl)-2-[2-(1-methyl-1H-benzoimidazol-2-yl)-ethyl]-2,3-dihydro-isoindol-1-one trifluoroacetate]: 200 to 500 nM; for `Cc1cc(-c2cccc3c2C(=O)N(CCc2ccc4ccccc4n2)C3)ccn1` [Example 65, 7-(2-Methyl-pyridin-4-yl)-2-(2-quinolin-2-yl-ethyl)-2,3-dihydro-isoindol-1-one]: less than 100 nM.
Take `Cn1ccc(-c2cccc3c2CN(CCc2ccc4ccccc4n2)C3=O)c1` [Example 352, 4-(1-Methyl-1H-pyrrol-3-yl)-2-(2-quinolin-2-yl-ethyl)-2,3-dihydro-isoindol-1-one]: the 50% inhibitory concentration (IC50) was 100 to 200 nM.
The same measure, in the same setting: the same measure for `O=C1c2c(cccc2-c2ccc3occc3c2)CN1CCc1ccc2ccccc2n1` [Example 72, 7-Benzofuran-5-yl-2-(2-quinolin-2-yl-ethyl)-2,3-dihydro-isoindol-1-one]: 200 to 500 nM.
In turn, `O=C1c2c(OCCF)ccc(-c3ccncc3)c2C(=O)N1CCc1ccc2ccccc2n1` [compound 532, 4-(2-Fluoro-ethoxy)-7-pyridin-4-yl-2-(2-quinolin-2-yl-ethyl)-isoindole-1,3-dione] displayed a half-maximal inhibitory concentration (IC50) of less than 100 nM.
`O=C1c2cccc(-c3cccnc3)c2C(=O)N1CCc1ccc2ccccc2n1` [Example 271, 4-Pyridin-3-yl-2-(2-quinolin-2-yl-ethyl)-isoindole-1,3-dione] had an IC50 of less than 100 nM.
In turn, `O=C1c2c(cccc2-c2cccc(F)c2F)CN1CCc1ccc2ccccc2n1` [Example 50, 7-(2,3-Difluoro-phenyl)-2-(2-quinolin-2-yl-ethyl)-2,3-dihydro-isoindol-1-one] showed an IC50 of 200 to 500 nM.
The same measure, in the same setting: the value for `CN(C)CCn1c(CCN2Cc3cccc(-c4ccncc4)c3C2=O)nc2ccccc21` [Example 293, 2-{2-[1-(2-Dimethylamino-ethyl)-1H-benzoimidazol-2-yl]-ethyl}-7-pyridin-4-yl-2,3-dihydro-isoindol-1-one trifluoroacetate] was less than 100 nM.
On the same count and under the same terms, the same measure for `COc1cc(-c2cccc3c2C(=O)N(CCc2ccc4ccccc4n2)C3)ccn1` [Example 182, 7-(2-Methoxy-pyridin-4-yl)-2-(2-quinolin-2-yl-ethyl)-2,3-dihydro-isoindol-1-one trifluoroacetate]: 200 to 500 nM; for `O=C1c2c(N3CC4COCC4C3)ccnc2CN1CCc1ccc2ccccc2n1` (stereo not shown) [Example 260, 6-(2-Quinolin-2-yl-ethyl)-4-(tetrahydro-furo[3,4-c]pyrrol-5-yl)-6,7-dihydro-pyrrolo[3,4-b]pyridin-5-one]: less than 100 nM.
The same measure, in the same setting: the value for `O=C1c2c(C3=COCC3)ccnc2CN1CCc1ccc2ccccc2n1` [Example 266, 4-(4,5-Dihydro-furan-3-yl)-6-(2-quinolin-2-yl-ethyl)-6,7-dihydro-pyrrolo[3,4-b]pyridin-5-one] was less than 100 nM; that for `O=C1c2c(cccc2-c2cncc(F)c2)CN1CCc1ccc2ccccc2n1` [Example 77, 7-(5-Fluoro-pyridin-3-yl)-2-(2-quinolin-2-yl-ethyl)-2,3-dihydro-isoindol-1-one] was less than 100 nM; that for `COc1cnccc1-c1cccc2c1C(=O)N(CCc1ccc3ccccc3n1)C2` [Example 169, 7-(3-Methoxy-pyridin-4-yl)-2-(2-quinolin-2-yl-ethyl)-2,3-dihydro-isoindol-1-one trifluoroacetate] was 100 to 200 nM.
`O=C1c2cccc(N3CCNCC3)c2CN1CCc1ccc2ccccc2n1` [Example 141, 4-piperazin-1-yl-2-(2-quinolin-2-yl-ethyl)-2,3-dihydro-isoindol-1-one]: the IC50 was in the range of 200 to 500 nM.
Same read-out and setting: the same measure for `O=C1c2cccc(-c3ccc(F)cc3)c2CN1CCc1ccc2ccccc2n1` [Example 212, 4-(4-Fluoro-phenyl)-2-(2-quinolin-2-yl-ethyl)-2,3-dihydro-isoindol-1-one trifluoroacetate]: 200 to 500 nM.
Still for that read-out and setting: the same measure for `O=C1c2c(cccc2-c2ccncc2F)CN1CCc1ccc2ccccc2n1` [Example 173, 7-(3-Fluoro-pyridin-4-yl)-2-(2-quinolin-2-yl-ethyl)-2,3-dihydro-isoindol-1-one]: less than 100 nM.
